# Test results as given in patent US20260027071A1, “COMPOSITION FOR PROMOTING COLLAGEN PRODUCTION COMPRISING AMIDATED AMINO ACID” (KYUNGPOOK NATIONAL UNIVERSITY INDUSTRY-ACADEMIC COOPERATION …, priority 2022, published 2026).
# “Also recorded” adds a separate entry of the source. Peptide text beside a SMILES is read from it.
# Assays:
# [1] = system: Human dermal fibroblasts (HDF); experiment: Collagen protein in conditioned media (Sircol Collagen Assay) of human dermal fibroblasts; format: cell-based; details: for change in collagen production induced by individual treatment / change in collagen production induced by combined treatment with glycinamide: FIG. 7b; for change in collagen production induced by individual treatment: concentration not given; for change in collagen production induced by combined treatment with glycinamide: ascorbic acid analog combined with glycinamide; for collagen production (collagen levels secreted into the media): HDF treated at 1 mM, result in words
# Description: The collagen protein levels in the conditioned media were evaluated using the Sircol™ Collagen Assay (Biocolor, Antrim, UK) according to the manufacturer's instructions. […] After discarding the media, the cells were washed with 500 μL of phosphate-buffered saline (PBS), then incubated in 1 mL of serum-free media for another 24 hours. A 1.0 mL media sample (either conditioned media or fresh media as a negative control) was transferred to a microcentrifuge tube, mixed with 100 μL of collagen isolation and concentration reagent, and incubated overnight at 4° C. The samples were centrifuged at 13,000×g for 10 minutes at 4° C., and the supernatant was carefully removed using a pipette without disturbing the pellet. Each tube was then added with 500 μL of Sircol dye reagent, inverted five times, and shaken at room temperature for 30 minutes. After centrifugation, the supernatant was discarded, and the pellet was washed with 500 μL of cold acid-salt washing reagent, followed by another centrifugation step. The pellet was then dissolved in 250 μL of alkali reagent, and a 200 μL portion was transferred to a 96-well plate. The optical density of the solution was read at 555 nm using a Spectrostar Nano microplate reader (BMG LABTECH GmbH, Ortenberg, Germany).
# human dermal fibroblasts = experiment: Wound healing (wound closure) assay, Oris cell migration kit; format: cell-based; details: HDF
# Description: Wound closure analysis was performed using the Oris™ Universal Cell Migration Assembly kit (Platinus Technologies, WI, USA) according to the manufacturer's instructions. The Oris™ stoppers were inserted into each well of the Oris™-compatible 96-well plate, and the plate was inverted to check for complete stopper attachment. A suspension of human dermal fibroblasts in IMDM was added to each well (1×10^4 cells in 100 μL per well) and incubated for 12 hours to allow cell attachment. Then, the stoppers were removed using the stopper tool, and the medium was aspirated using a pipette. The wells were gently washed with 100 μL PBS to remove unattached cells, and the attached cells were treated with drugs in 100 μL culture medium for the specified time, respectively. Images of the wounds were obtained using a phase-contrast microscope (Eclipse TS 100, Nikon Instruments Inc., Melville, NY, USA). The wound areas in the images were quantified using the NIH Image J program. Wound closure (%) was calculated using the following equation: Wound closure (%)=[(A0−At)/A0]×100, where A0 is the area of the original wound and At is the wound area measured at the specified time.
# [2] = system: Human dermal fibroblasts (HDF); experiment: Cell viability / proliferation (MTT assay) in human dermal fibroblasts; details: for cell proliferation effect of TGF-β1: HDF, analog combined with TGF-β1 (FIG. 7c); for cell viability: HDF treated at 1 mM, result in words
# Description: Human dermal fibroblasts (HDF) extracted from adult skin were obtained from Cascade Biologics (Portland, OR, USA), and human articular chondrocytes (HAC), human follicle dermal papilla cells (HFCPC), human aortic endothelial cells (HAoEC), and human osteoblasts (HOB) were obtained from PromoCell (Heidelberg, Germany). The cells were cultured in a closed incubator at 37° C. in humidified air comprising 5% CO2. The growth medium for HDF consisted of Iscove's Modified Dulbecco's Medium (IMDM) (Gibco BRL, Grand Island, NY, USA) supplemented with 10% fetal bovine serum (Hyclone, South Logan, UT) and 1% antibiotics (100 U·mL^−1 penicillin, 0.1 mg·mL^−1 streptomycin).
# The cell viability was evaluated using the MTT assay. Briefly, HDF (1×10^4 cells per well), HAC (5×10^3 cells per well), HFDPC (1×10^4 cells per well), HAoEC (5×10^3 cells per well), and HOB (2×10^3 cells per well) were cultured in growth media in a 96-well culture plate for 24 hours, followed by treatment with each drug for 48 hours. After discarding the media, the cells were incubated at 37° C. for 2 hours in fresh growth media (100 μL) containing 1 mg·mL^−1 MTT (Amresco, Solon, OH, USA). The media was removed by aspiration, and the formazan dye accumulated inside the cells was dissolved in 100 μL of dimethyl sulfoxide. The absorbance of the solution was measured at 570 nm using a Spetrostar Nano microplate reader (BMG LABTECH GmbH, Ortenberg, Germany).
Compound,collagen production (collagen levels secreted into the media) [1],also measured
"O=C1O[C@H]([C@@H](O)CO)C(O)=C1O[C@H]1O[C@H](CO)[C@@H](O)[C@H](O)[C@H]1O [AG, ascorbyl 2-O-glucoside, reference compound]",,change in collagen production induced by individual treatment ([1]; HDF): 27.2%; change in collagen production induced by combined treatment with glycinamide ([1]; HDF): 123.6%; wound closure (human dermal fibroblasts; early stage (24 hours)): slightly promoted wound closure; wound closure (human dermal fibroblasts; later stages (36 and 48 hours)): inhibited; cell proliferation effect of TGF-β1 [2]: significantly reduced
"CCCCCCCCC(CCCCCC)C(=O)OC[C@H](OC(=O)C(CCCCCC)CCCCCCCC)[C@H]1OC(=O)C(OC(=O)C(CCCCCC)CCCCCCCC)=C1OC(=O)C(CCCCCC)CCCCCCCC (some centres unmarked) [ATI, ascorbyl tetraisopalmitate, reference compound]",,change in collagen production induced by individual treatment ([1]; HDF): 25.5%; change in collagen production induced by combined treatment with glycinamide ([1]; HDF): 124.6%; wound closure (human dermal fibroblasts; early stage (24 hours)): slightly promoted wound closure; wound closure (human dermal fibroblasts; later stages (36 and 48 hours)): inhibited; cell proliferation effect of TGF-β1 [2]: significantly reduced
"CCOC1=C(O)C(=O)O[C@@H]1[C@@H](O)CO [EAA, 3-O-ethyl ascorbic acid, reference compound]",,change in collagen production induced by individual treatment ([1]; HDF): 19.5%; change in collagen production induced by combined treatment with glycinamide ([1]; HDF): 115.5%; wound closure (human dermal fibroblasts; early stage (24 hours)): slightly promoted wound closure; wound closure (human dermal fibroblasts; later stages (36 and 48 hours)): inhibited; cell proliferation effect of TGF-β1 [2]: significantly reduced
"O=C1O[C@H]([C@@H](O)CO)C([O-])=C1OP(=O)([O-])[O-].O=C1O[C@H]([C@@H](O)CO)C([O-])=C1OP(=O)([O-])[O-].[Mg+2].[Mg+2].[Mg+2] [MAP, Magnesium ascorbyl phosphate, reference compound]",,"change in collagen production induced by individual treatment ([1]; HDF): 25.3%; change in collagen production induced by combined treatment with glycinamide ([1]; HDF): 118.4%; further enhancement of wound closure by combined treatment with glycinamide (human dermal fibroblasts; analog combined with glycinamide): further enhanced; wound closure (human dermal fibroblasts; treated alone, up to 48 hours (FIG. 8b)): promoted wound closure to a similar extent as ascorbic acid"
"CC(=O)NCC(=O)O [N-acetyl glycine, reference compound]",did not affect collagen production,
"C[C@H](N)C(N)=O.Cl [alaninamide, L-Alaninamide HCl]",enhanced the collagen levels,
"Cl.Cl.N=C(N)NCCC[C@H](N)C(N)=O [argininamide, L-Argininamide diHCl]",enhanced the collagen levels,
"Cl.NC(=O)C[C@H](N)C(N)=O [asparaginamide, L-Asparaginamide HCl]",no significant effect,
"Cl.NC(=O)[C@@H](N)CC(=O)O [aspartic acid α-amide, L-Aspartic acid α-amide HCl]",no significant effect,cell viability [2]: reducing effect
"Cl.NC(=O)[C@@H](N)CS [cysteinamide, L-Cysteinamide HCl]",enhanced the collagen levels,
"NC(=O)[C@@H](N)CCC(=O)O [glutamic acid α-amide, L-Glutamic acid α-amide]",enhanced the collagen levels,
"Cl.NC(=O)CC[C@H](N)C(N)=O [glutaminamide, L-Glutaminamide HCl]",enhanced the collagen levels,
"NC(=O)CC[C@H](N)C(=O)O [glutamine, L-Glutamine, reference compound]",increased collagen,
"CCOC(=O)CN.Cl [glycine ethyl ester, glycine ethyl ester HCl, reference compound]",did not affect collagen production,
"COC(=O)CN.Cl [glycine methyl ester, glycine methyl ester HCl, reference compound]",somewhat reducing effect,
"NCC(=O)O [glycine, Glycine, reference compound]",most effectively increased collagen; also recorded: enhanced collagen production,"collagen production ([1]; HDF, 3 and 5 mM): significantly reduced"
"NCC(=O)NCC(=O)O [glycyl glycine, reference compound] (H-Gly-Gly-OH)",did not affect collagen production,

Compound,collagen production (collagen levels secreted into the media) [1],also measured
NCC(=O)NCC(=O)O [glycylglycine] (H-Gly-Gly-OH),promoted collagen production,"collagen production ([1]; HDF, 0.25 mM): increased collagen production; collagen production ([1]; HDF, 1-2 mM): greatest enhancement of collagen production; collagen production ([1]; HDF, 3 and 5 mM): slightly reduced"
"Cl.NC(=O)[C@@H](N)Cc1c[nH]cn1 [histidinamide, L-Histidinamide HCl]",no significant effect,
"CC[C@H](C)[C@H](N)C(N)=O.Cl [isoleucinamide, L-Isoleucinamide HCl]",enhanced the collagen levels,
"CC[C@H](C)[C@H](N)C(=O)O [isoleucine, L-Isoleucine, reference compound]",increased collagen,
"CC(C)C[C@H](N)C(N)=O.Cl [leucinamide, L-Leucinamide HCl]",enhanced the collagen levels,
"CC(C)C[C@H](N)C(=O)O [leucine, L-Leucine, reference compound]",increased collagen,
"Cl.Cl.NCCCC[C@H](N)C(N)=O [lysinamide, L-Lysinamide diHCl]",no significant effect,cell viability [2]: reducing effect
"CSCC[C@H](N)C(N)=O.Cl [methioninamide, L-Methioninamide HCl]",enhanced the collagen levels,
"Cl.NC(=O)[C@@H](N)Cc1ccccc1 [phenylalaninamide, L-Phenylalaninamide HCl]",enhanced the collagen levels,
"Cl.NC(=O)[C@@H]1CCCN1 [prolinamide, L-Prolinamide HCl]",enhanced the collagen levels,
"O=C(O)[C@@H]1CCCN1 [proline, L-Proline, reference compound]",increased collagen,
"Cl.NC(=O)[C@@H](N)CO [serinamide, L-Serinamide HCl]",no significant effect,
"C[C@@H](O)[C@H](N)C(N)=O.Cl [threoninamide, L-Threoninamide HCl]",enhanced the collagen levels,
"Cl.NC(=O)[C@@H](N)Cc1c[nH]c2ccccc12 [tryptophanamid, L-Tryptophanamide HCl]",no significant effect,
"Cl.NC(=O)[C@@H](N)Cc1ccc(O)cc1 [tyrosinamide, L-Tyrosinamide HCl]",enhanced the collagen levels,
"CC(C)[C@H](N)C(N)=O.Cl [valinamide, L-Valinamide HCl]",enhanced the collagen levels,
madecassoside [reference compound],,"collagen production ([1]; HDF, 10 μM): no significant effect; concentrations at which collagen production increased ([1]; HDF, non-cytotoxic concentrations (FIG. 10b)): 100 µM"
